≈ marks a conversion by molar mass, not a printed value. Read-outs that look alike come from different tables or passages of the source.
What was measured:
[1] = system: platelet aggregation (platelet-rich plasmas (PRP) of guinea pigs); test: Activity of inhibiting platelet aggregation in vitro, guinea pig PRP, sodium arachidonate as aggregating agent (Table 1); type: cell-based, Hartley-strain male guinea pigs; conditions: Cavia porcellus, sodium arachidonate 0.03 mM final, 37° C., final concentration, read-out: IC50 (minimum concentration of drug which showed a percent inhibition of more than 50%)
Description: Some 1-substituted-3-acylpyrrole derivatives and other drugs were tested for platelet aggregation inhibiting activities in vitro using platelet-rich plasmas (PRP) of man and guinea pigs. The results are shown as minimum concentration of drugs which inhibit more than 50% of platelet aggregation induced by several aggregating agents.
In experiments with PRP of guinea pigs, sodium arachidonate (final concentration 0.03 mM) was used as an aggregating agent. In experiments with human PRP, sodium arachidonate (final concentration 0.1 mM), collagan suspension (final concentration 10 μg/ml), epinephrine solution (final concentration 20 μg/ml; for secondary aggregation), an epinephrine solution (final concentration 2 μg/ml; for primary aggregation) and ADP (final concentration 5 μM) were used as aggregating agents.
In an experiment with guinea pig PRP, citrated blood (containing 0.38% sodium citrate as a final concentration) was withdrawn by cardiac puncture from Hartley-strain male guinea pigs having a body weight of 350 to 600 g. The citrated blood was centrifuged at 1,000 rpm for 10 minutes at room temperature, and the supernatant platelet suspension (PRP) was separated.
The PRP was stored at room temperature, and used as soon as possible. Those which had been stored for more than 4 hours after preparation were not used.
For each test, a drug is dissolved in dimethylsulfoxide to a concentration of 10 mg/ml, and diluted with physiological saline to form 1 ml each of solutions having a concentration of 2500 μg/ml, 1000 μg/ml, 750 μg/ml, 500 μg/ml, 250 μg/ml and 100 μg/ml. A compound having a free carboxylic acid as a residue such as indomethacine and Ibprofen was dissolved in 0.1 M NaHCO3 to form a sodium salt solution having a concentration of 10 mg/ml. Then, the solution was diluted with physiological saline in the same way as above to form a test drug solution.
Arachidonic acid (99% pure, a product of Sigma Co., Ltd.) was dissolved in 0.1 M NaHCO3, and a 3.3 mM solution of sodium arachidonate was prepared. The solution was diluted with physiological saline to a concentration of 1 mM and used in the experiments. The 3.3 mM solution was stored in a refrigerator as a stock solution, and the 1 mM solution was newly prepared from the stock solution every time it was used.
Physiological saline (50 μl) and 50 μl of the aggregating agent solution were added to 400 μl of PRP which had been pre-warmed and stirred at 37° C. in a quvett set in a holder of an aggregometer. Platelet aggregation was thus initiated, and the change of light transmittance through a stirred platelet suspension was recorded for 3 minutes by a recorder joined to the aggregometer. An increase in transmittance after 3 minutes (T0) was used as a parameter of the rate of platelet aggregation in control experiments.
To 400 μl of PRP in a quvett was added 50 μl of a test drug solution. The mixture was pre-incubated and stirred for 2 minutes at 37° C. Then 50 μl of the aggregating agent was added to drug containing PRP and again aggregation responses were recorded as increases in light transmittance after 3 minutes (T1) in the same way as in (1) above. Percent inhibition was calculated from the formula [formula]
For the above in vitro test for the inhibition of platelet aggregation, reference may be had to H. M. Davis, J. Phyllis, K. Paul and W. Terry: Thromb. Res. 11, 217-226 (1977) and R. E. Anderson and J. G. Foulks: Thromb. Haemos. 36, 343-359 (1976).

carrageenan edema = test: Antiinflammatory activity (carrageenan edema of rat paw, Table 5); type: in vivo, Sprangue-Dawley (SD) male rats; conditions: 100 mg/kg orally, 3 h after 1% carrageenan
Description: Sprangue-Dawley (SD) male rats with a body weight of 160 to 180 g, four in each group, were used. The volume of the left leg was measured, and each of the test compounds shown in Table 5 (100 mg/kg dissolved in polyethylene glycol so as to provide a volume of 2 ml/kg) was orally administered. One hour later, 0.1 ml of 1% carrageenan (dissolved in physiological saline) as an inflammation-inducing substance was subcutaneously injected to the paw of the left hind leg. A control group was orally administered with 2 ml/kg of polyethylene glycol. As a positive control, 25 mg/kg of Ibprofen was similarly administered. Three hours after the injection of 1% carrageenan, the volume of the left leg was measured, and the ratio of edema was calculated from the volume before the administration of the carrageenan. The percent inhibition of edema in comparison with the control group was determined.

Acute toxicity (Table 6) = type: in vivo; conditions: mouse, in vivo, mice, Litchfield-Wilcoxon, read-out: LD50 (50% lethal dose)
Description: (§1) ICR male mice with a body weight of 24 to 27 g (5 to 6 per group) were used. Each test compound was dissolved in propylene glycol in various concentrations, and administered orally (in a volume of 0.1 to 0.05 ml/10 g), subcutaneously (in a volume of 0.1 to 0.05 ml/10 g), or intraperitoneally (in a volume of 0.05 ml/10 g) to the mice. […] The LD50 (50% lethal dose) of each test compound was determined by the Litchfield-Wilcoxon method.
(§2) The denominator indicates the number of mice used, and the numerator, the number of dead mice.

ICR male mice = test: Acute toxicity (Table 6); type: in vivo; conditions: 10 days
Description: as §1, §2

Cc1cc(C(=O)c2ccccc2)c(C)n1CC(C)O (centres unmarked) [Compound 102, 2-(3-benzoyl-2,5-dimethylpyrrol-1-yl)-1-methylethanol]
IC50 [1]: 5 µg/mL (≈ 19.4 µM) | Percent inhibition of edema (carrageenan edema): 8% | LD50 at 240 h (Acute toxicity (Table 6); ip, intraperitoneal): 110 mg/kg | LD50 at 240 h (Acute toxicity (Table 6); po, peroral): > 4000 mg/kg | LD50 at 240 h (Acute toxicity (Table 6); sc, subcutaneous): > 4000 mg/kg | mortality (dead mice / mice used) (ICR male mice; intraperitoneal, 62.5 mg/kg): 0/5 | mortality (dead mice / mice used) (ICR male mice; intraperitoneal, 125 mg/kg): 4/5 | mortality (dead mice / mice used) (ICR male mice; intraperitoneal, 250 mg/kg): 5/5 | mortality (dead mice / mice used) (ICR male mice; intraperitoneal, 500 mg/kg): 5/5 | mortality (dead mice / mice used) (ICR male mice; peroral, 1000 mg/kg): 0/6 | mortality (dead mice / mice used) (ICR male mice; peroral, 2000 mg/kg): 0/6 | mortality (dead mice / mice used) (ICR male mice; peroral, 3000 mg/kg): 0/6 | mortality (dead mice / mice used) (ICR male mice; peroral, 4000 mg/kg): 1/6 | mortality (dead mice / mice used) (ICR male mice; subcutaneous, 4000 mg/kg): 0/5

Source: patent US4233309A, “Novel 1-substituted-3-acylpyrrole derivatives, platelet aggregation inhibitors containing them, as active ingredients, and processes for production of said derivatives” (Teijin Limited, priority 1977, dated 1980)
